According to patent publication US7348427B2, “Antipathogenic benzamide compounds” (Genesoft Pharmaceuticals, Inc., priority 2001, dated 2008):

Experiments:
[1] = test system: Bacillus cereus (ATCC 11778); experiment: MIC, NCCLS broth microdilution assay; type: cell-based; details: A = B. cereus ATCC 11778
In short: (§1)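 Activity is measured as MIC in microtiter broth microdilution under NCCLS M7-A4, M11-A4 and M27-T guidance, with the yeast tested by the method in Murray's Manual of Clinical Microbiology.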

[2] = test system: Enterococcus faecium (ATCC 51559, a vancomycin resistant strain (VRE)); experiment: MIC, NCCLS broth microdilution assay; type: cell-based; details: D = E. faecium ATCC 51559
In short: as §1

[3] = test system: Staphylococcus aureus (ATCC 13709, a methicillin sensitive strain (MSSA)); experiment: MIC, NCCLS broth microdilution assay; type: cell-based; details: E = S. aureus ATCC 13709
In short: as §1

[4] = test system: Staphylococcus aureus (ATCC 27660, a methicillin resistant strain (MRSA)); experiment: MIC, NCCLS broth microdilution assay; type: cell-based; details: F = S. aureus ATCC 27660
In short: as §1

[5] = test system: Staphylococcus epidermidis (ATCC 12228); experiment: MIC, NCCLS broth microdilution assay; type: cell-based; details: G = S. epidermidis ATCC 12228
In short: as §1

[6] = test system: Streptococcus pneumoniae (ATCC 51422, a penicillin resistant strain (PRSP)); experiment: MIC, NCCLS broth microdilution assay; type: cell-based; details: I = S. pneumoniae ATCC 51422
In short: as §1

[7] = test system: Candida albicans (ATCC 38247); experiment: Antifungal MIC assay; type: cell-based; details: B = C. albicans ATCC 38247
In short: as §1

E. faecalis ATCC 29212 = experiment: MIC, NCCLS broth microdilution assay; type: cell-based, Enterococcus faecalis; details: C = E. faecalis ATCC 29212
In short: (§2)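 MICs were determined by NCCLS broth microdilution following documents M7-A4 and M11-A4 (1997).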

S. pneumoniae ATCC 49619 = experiment: MIC, NCCLS broth microdilution assay; type: cell-based, Streptococcus pneumoniae; details: H = S. pneumoniae ATCC 49619
In short: as §2

## Cn1cc(NC(=O)c2cc(NC(=O)c3cc(NC(=O)c4ccc(F)cc4F)cn3C)cn2C)cc1C(=O)NCCc1cccnc1 [Compound B-24]
[1]
  Minimum Inhibitory Concentration (MIC): +++ (+++ = MIC ≦ 4)
[2]
  Minimum Inhibitory Concentration (MIC): +++ (+++ = MIC ≦ 4)
[3]
  Minimum Inhibitory Concentration (MIC): +++ (+++ = MIC ≦ 4)
[4]
  Minimum Inhibitory Concentration (MIC): +++ (+++ = MIC ≦ 4)
[5]
  Minimum Inhibitory Concentration (MIC): +++ (+++ = MIC ≦ 4)
[6]
  Minimum Inhibitory Concentration (MIC): +++ (+++ = MIC ≦ 4)
[7]
  Minimum Inhibitory Concentration (MIC): >32 µg/mL
E. faecalis ATCC 29212
  Minimum Inhibitory Concentration (MIC): +++ (+++ = MIC ≦ 4)
S. pneumoniae ATCC 49619
  Minimum Inhibitory Concentration (MIC): +++ (+++ = MIC ≦ 4)

## Cn1cc(NC(=O)c2ccc(F)cc2F)cc1C(=O)Nc1cc(C(=O)Nc2cc(C(=O)N3CCC(O)CC3)n(C)c2)n(C)c1 [Compound B-26]
[1]
  Minimum Inhibitory Concentration (MIC): >32 µg/mL
[2]
  Minimum Inhibitory Concentration (MIC): >32 µg/mL
[3]
  Minimum Inhibitory Concentration (MIC): >32 µg/mL
[4]
  Minimum Inhibitory Concentration (MIC): >32 µg/mL
[5]
  Minimum Inhibitory Concentration (MIC): >32 µg/mL
[6]
  Minimum Inhibitory Concentration (MIC): >32 µg/mL
[7]
  Minimum Inhibitory Concentration (MIC): >32 µg/mL
E. faecalis ATCC 29212
  Minimum Inhibitory Concentration (MIC): >32 µg/mL
S. pneumoniae ATCC 49619
  Minimum Inhibitory Concentration (MIC): >32 µg/mL

## Cn1cc(NC(=O)c2cc(NC(=O)c3cc(NC(=O)c4ccc(F)cc4F)cn3C)cn2C)cc1C(=O)NCCN1CCC(F)(F)CC1 [Compound B-27]
[1]
  Minimum Inhibitory Concentration (MIC): +++ (+++ = MIC ≦ 4)
[2]
  Minimum Inhibitory Concentration (MIC): +++ (+++ = MIC ≦ 4)
[3]
  Minimum Inhibitory Concentration (MIC): +++ (+++ = MIC ≦ 4)
[4]
  Minimum Inhibitory Concentration (MIC): +++ (+++ = MIC ≦ 4)
[5]
  Minimum Inhibitory Concentration (MIC): +++ (+++ = MIC ≦ 4)
[6]
  Minimum Inhibitory Concentration (MIC): +++ (+++ = MIC ≦ 4)
[7]
  Minimum Inhibitory Concentration (MIC): >32 µg/mL
E. faecalis ATCC 29212
  Minimum Inhibitory Concentration (MIC): +++ (+++ = MIC ≦ 4)
S. pneumoniae ATCC 49619
  Minimum Inhibitory Concentration (MIC): +++ (+++ = MIC ≦ 4)

## Cn1cc(NC(=O)c2cc(NC(=O)c3cc(NC(=O)c4ccccc4F)cn3C)cn2C)cc1C(=O)NCCN1CCSCC1 [Compound B-41]
[1]
  Minimum Inhibitory Concentration (MIC): +++ (+++ = MIC ≦ 4)
[2]
  Minimum Inhibitory Concentration (MIC): +++ (+++ = MIC ≦ 4)
[3]
  Minimum Inhibitory Concentration (MIC): +++ (+++ = MIC ≦ 4)
[4]
  Minimum Inhibitory Concentration (MIC): +++ (+++ = MIC ≦ 4)
[5]
  Minimum Inhibitory Concentration (MIC): +++ (+++ = MIC ≦ 4)
[6]
  Minimum Inhibitory Concentration (MIC): +++ (+++ = MIC ≦ 4)
[7]
  Minimum Inhibitory Concentration (MIC): >32 µg/mL
E. faecalis ATCC 29212
  Minimum Inhibitory Concentration (MIC): +++ (+++ = MIC ≦ 4)
S. pneumoniae ATCC 49619
  Minimum Inhibitory Concentration (MIC): +++ (+++ = MIC ≦ 4)

## Cn1cc(NC(=O)c2cc(NC(=O)c3ccc(Cl)cc3F)cn2C)cc1C(=O)NCCN1CCOCC1 [Compound B-48]
[1]
  Minimum Inhibitory Concentration (MIC): +++ (+++ = MIC ≦ 4)
[2]
  Minimum Inhibitory Concentration (MIC): +++ (+++ = MIC ≦ 4)
[3]
  Minimum Inhibitory Concentration (MIC): +++ (+++ = MIC ≦ 4)
[4]
  Minimum Inhibitory Concentration (MIC): ++ (++ = 4 < MIC < 12)
[5]
  Minimum Inhibitory Concentration (MIC): +++ (+++ = MIC ≦ 4)
[6]
  Minimum Inhibitory Concentration (MIC): +++ (+++ = MIC ≦ 4)
[7]
  Minimum Inhibitory Concentration (MIC): >32 µg/mL
E. faecalis ATCC 29212
  Minimum Inhibitory Concentration (MIC): +++ (+++ = MIC ≦ 4)
S. pneumoniae ATCC 49619
  Minimum Inhibitory Concentration (MIC): +++ (+++ = MIC ≦ 4)

## Cn1cc(NC(=O)c2cc(NC(=O)c3cc(NC(=O)c4ccc(Cl)cc4F)cn3C)cn2C)cc1C(=O)NCCN1CCSCC1 [Compound B-49]
[1]
  Minimum Inhibitory Concentration (MIC): +++ (+++ = MIC ≦ 4)
[2]
  Minimum Inhibitory Concentration (MIC): +++ (+++ = MIC ≦ 4)
[3]
  Minimum Inhibitory Concentration (MIC): +++ (+++ = MIC ≦ 4)
[4]
  Minimum Inhibitory Concentration (MIC): +++ (+++ = MIC ≦ 4)
[5]
  Minimum Inhibitory Concentration (MIC): +++ (+++ = MIC ≦ 4)
[6]
  Minimum Inhibitory Concentration (MIC): +++ (+++ = MIC ≦ 4)
[7]
  Minimum Inhibitory Concentration (MIC): >32 µg/mL
E. faecalis ATCC 29212
  Minimum Inhibitory Concentration (MIC): +++ (+++ = MIC ≦ 4)
S. pneumoniae ATCC 49619
  Minimum Inhibitory Concentration (MIC): +++ (+++ = MIC ≦ 4)
